Like-named read-outs stand apart in the source and are kept apart here. Starred links: 1 amine or outer side, 2 acyl side, 3 side chain; linkers in the order of their positions; H or OH if unused. Positions of bridges follow the written chain, without caps; N, C: chain ends. Non-standard residues stand in square brackets, D forms with d. Residues, ends and D or L forms follow the SMILES beside them. ξ: configuration not given here. *: point of attachment. Phe(4-(CH2)5CO) = O=C([C@H](Cc1ccc(CCCCCC(=O)[*:3])cc1)N[*:1])[*:2]; NMePhe(3-Cl) = CN[C@@H](Cc1cccc(Cl)c1)C(=O)O; X2 = O=C(C[C@H](N[*:1])C(F)(F)F)[*:2]; NMeF = CN[C@@H](Cc1ccccc1)C(=O)O; NMeI = CC[C@H](C)[C@H](NC)C(=O)O; NMeβAla = CN(CCC(=O)[*:2])[*:1]; NMeL = CN[C@@H](CC(C)C)C(=O)O; NMeV = CN[C@H](C(=O)O)C(C)C; NMeS = CN[C@@H](CO)C(=O)O; NMeA = CN[C@@H](C)C(=O)O; Piperidide = C1CCN(*)CC1; β3hA = C[C@H](N)CC(=O)O; Abu = CC[C@H](N)C(=O)O; ξP = O=C(O)C1CCCN1; Sar = CNCC(=O)O
How the values were obtained:
[1] = PAMPA (parallel artificial membrane permeability assay); assay type: in vitro ADME; conditions: PAMPA
Method in brief: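 Artificial membrane was 10% (w/v) egg lecithin plus 0.5% (w/v) cholesterol in dodecane on a PVDF filter. A 10 mM DMSO stock was added at 0.5% (v/v) to donor buffer (50 mM MOPSO, pH 6.5, 5.0% glycocholic acid). After 18 h at 37 °C, LC/MS or LC/UV gave donor and acceptor levels for Pe.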

[2] = Metabolic stability in human hepatic microsome; assay type: in vitro ADME; conditions: microsomes
[3] = membrane permeation rate (Pe), 50 mM MOPSO buffer pH 6.5 with 5.0% glycocholic acid, 37° C., 18 hours, read-out: iPAMPA Pe
[4] = pH 7.4, human hepatic microsome, NADPH(+), read-out: CL NADPH(+)

SMILES	Papp at 18 hours, 50 µM [1, 3]	microsomal CLint at 1 uM [2, 4]	Papp at 18 hours, 50 µM ([1]; pH 6.5)	microsomal CLint at 1 uM ([2]; human, pH 7.4, CL NADPH(+))
CC[C@H](C)[C@H](NC(=O)[C@H](Cc1ccccc1)N(C)C(=O)[C@H](CC(C)C)N(C)C(=O)[C@@H](NC(=O)[C@@H]1CC(=O)N(C)[C@@H](C)C(=O)N[C@@H]([C@@H](C)CC)C(=O)N(C)[C@@H](CC(C)C)C(=O)N[C@@H]([C@@H](C)O)C(=O)N[C@@H](CC(C)C)C(=O)N(C)[C@@H](Cc2cccc(Cl)c2)C(=O)N1)C(C)C)C(=O)N1CCCCC1 [DP-920] ([NMeA]I[NMeL]TL[NMePhe(3-Cl)]DV[NMeL][NMeF]I-Piperidide; lactam N-7)	0.22 ×10⁻⁶ cm/s	27 µL/min/mg	–	–
CC(C)C[C@H]1C(=O)NCC(=O)N[C@H](C(=O)N(C)[C@@H](Cc2ccccc2)C(=O)N(C)[C@@H](Cc2ccccc2)C(=O)N[C@@H](C)C(=O)N2CCCCC2)CC(=O)N[C@H](C(C)C)C(=O)N[C@@H]([C@@H](C)O)C(=O)N(C)[C@@H](C)C(=O)N(C)[C@@H](Cc2ccccc2)C(=O)N[C@@H](C(C)C)C(=O)N(C)[C@@H](Cc2ccccc2)C(=O)N1C [DP-401] ([dV]T[NMeA][NMeF]V[NMeF][NMeL]GD[NMeF][NMeF]A-Piperidide; lactam N-9)	–	–	8.6 ×10⁻⁶ cm/s	145 µL/min/mg
CC(C)C[C@@H]1NC(=O)[C@H](CC(C)C)N(C)C(=O)[C@H](CC(C)C)N(C)C(=O)C[C@@H](C(=O)N2CCCCC2)NC(=O)[C@H](Cc2ccccc2)N(C)C(=O)C2CCCN2C(=O)[C@H]([C@@H](C)O)NC(=O)[C@H](Cc2ccccc2)N(C)C1=O (stereo partly drawn) [DP-706] ([NMeL][NMeL]L[NMeF]T[ξP][NMeF]D-Piperidide; lactam N-8)	–	–	48 ×10⁻⁶ cm/s	264 µL/min/mg
CC[C@@H]1NC(=O)[C@H](CO)N(C)C(=O)[C@H](CC(C)C)N(C)C(=O)[C@H](CC(C)C)N(C)C(=O)[C@H](CC(C)C)N(C)C(=O)[C@@H](C)NC(=O)[C@H](C)NC(=O)[C@H](CC(C)C)N(C)C(=O)[C@H](CC)NC(=O)[C@H](CC(C)C)N(C)C(=O)C[C@@H](C(F)(F)F)NC1=O [DP-655] (cyclo(A[dA][NMeL][NMeL][NMeL][NMeS][Abu][X2][NMeL][Abu][NMeL]))	34 ×10⁻⁶ cm/s	62 µL/min/mg	–	–
CC[C@H](C)[C@@H]1NC(=O)[C@H](Cc2ccccc2)N(C)C(=O)[C@H](CC(C)C)NC(=O)[C@H](CC(C)C)NC(=O)[C@H](Cc2ccccc2)NC(=O)[C@H](CC(C)C)NC(=O)[C@@H](C)NC(=O)C[C@@H](C(=O)N(C)[C@@H](C)C(=O)N[C@@H](CC(C)C)C(=O)N[C@@H](C)C(=O)N[C@H](C(=O)N2CCCCC2)[C@@H](C)CC)NC(=O)[C@H](Cc2ccccc2)NC(=O)[C@H]([C@@H](C)O)NC1=O [DP-580] ([dA]LFLL[NMeF]ITFD[NMeA]LAI-Piperidide; lactam N-10)	0.13 ×10⁻⁶ cm/s	54 µL/min/mg	–	–
CC(C)C[C@H]1C(=O)N[C@H](C(=O)N2CCCCC2)CC(=O)N[C@H](C)C(=O)N(C)[C@@H](Cc2ccccc2)C(=O)N(C)[C@@H](CC(C)C)C(=O)N[C@@H]([C@@H](C)O)C(=O)N(C)CC(=O)N1C [DP-537] ([dA][NMeF][NMeL]T[Sar][NMeL]D-Piperidide; lactam N-7)	10 ×10⁻⁶ cm/s	78 µL/min/mg	–	–
CC[C@H](C)[C@@H]1NC(=O)[C@H](C)NC(=O)C[C@@H](C(=O)N2CCCCC2)NC(=O)[C@H](Cc2ccccc2)NC(=O)[C@H](C(C)C)N(C)C(=O)[C@H](CC(C)C)NC(=O)[C@H](C)N(C)C(=O)[C@H](Cc2ccccc2)N(C)C(=O)[C@H]([C@@H](C)O)NC(=O)CN(C)C(=O)[C@H](CC(C)C)N(C)C(=O)[C@@H]2CCCN2C1=O [DP-9] (AIP[NMeL][Sar]T[NMeF][NMeA]L[NMeV]FD-Piperidide; lactam N-12)	13 ×10⁻⁶ cm/s	18 µL/min/mg	–	–
CC[C@H](C)[C@@H]1NC(=O)[C@H](CC(C)C)N(C)C(=O)[C@H](C)NC(=O)CN(C)C(=O)[C@H](CC(C)C)NC(=O)[C@H]([C@@H](C)O)NC(=O)[C@H](CC(C)C)N(C)C(=O)CCN(C)C(=O)C[C@H](C)NC(=O)[C@H](CC(C)C)N(C)C(=O)[C@H](CC(C)C)N(C)C1=O [DP-806] (cyclo(A[NMeL]I[NMeL][NMeL][β3hA][NMeβAla][NMeL]TL[Sar]))	27 ×10⁻⁶ cm/s	88 µL/min/mg	–	–
CC[C@H](C)[C@H]1C(=O)N(C)[C@@H](CC(C)C)C(=O)N(C)[C@@H](Cc2ccccc2)C(=O)N[C@@H](CC(C)C)C(=O)N(C)[C@@H](C(C)C)C(=O)N[C@@H](Cc2ccccc2)C(=O)N[C@@H]([C@@H](C)O)C(=O)N[C@H](C(=O)N2CCCCC2)Cc2ccc(cc2)CCCCCC(=O)N[C@@H](C)C(=O)N1C [DP-847] (A[NMeI][NMeL][NMeF]L[NMeV]FT[Phe(4-(CH2)5CO)]-Piperidide; lactam N-9)	3.3 ×10⁻⁶ cm/s	329 µL/min/mg	–	–
CC(C)C[C@@H]1NC(=O)[C@H](CC(C)C)N(C)C(=O)CCN(C)C(=O)C[C@@H](C(=O)N(C)[C@@H](Cc2ccccc2)C(=O)N[C@@H](C)C(=O)N2CCCCC2)NC(=O)[C@H](C)N(C)C(=O)[C@H]([C@@H](C)O)NC(=O)[C@H](Cc2ccccc2)NC(=O)[C@H](CC(C)C)N(C)C(=O)CNC(=O)[C@H](Cc2ccccc2)N(C)C1=O [DP-446] ([NMeβAla][NMeL]L[NMeF]G[NMeL]FT[NMeA]D[NMeF]A-Piperidide; lactam N-10)	40 ×10⁻⁶ cm/s	104 µL/min/mg	–	–
